Test results: ChEMBL document CHEMBL3600289, “A double bond-conjugated dimethylnitrobenzene-type photolabile nitric oxide donor with improved two-photon cross section” (Bioorg Med Chem Lett, 2015)
Calls of active or inactive are those of the source. No cut-off for these calls is given here.

Tests used:
[1] = Induction of nitric oxide release in water/DMSO mixture irradiated with 100W Hg lamp at 450 to 480 nm by […] complex-based ESR spin trapping method; format: physicochemical; conditions: buffer, 0.48 µM
[2] = tested on: HCT-116; test: Induction of nitric oxide release in human HCT116 cells at 25 uM preincubated for 1 hr followed by irradiation with 950 nm pulse laser for 1 sec by confocal microscopic analysis; format: functional, cell-based
[3] = tested on: HCT-116; test: Induction of nitric oxide release in human HCT116 cells at 25 uM incubated for 1 hr by confocal microscopic analysis in absence of irradiation; format: functional, cell-based
[4] = Induction of nitric oxide release in water/DMSO mixture irradiated with 100W Hg lamp at 330 to 380 nm at 1 mM by […] complex-based ESR spin trapping method; format: physicochemical; conditions: buffer, 0.38 µM
[5] = Induction of nitric oxide release in water/DMSO mixture irradiated with 100W Hg lamp at 450 to 480 nm at 1 mM by […] complex-based ESR spin trapping method; format: physicochemical; conditions: buffer, 0.48 µM

SMILES	Activity [1]	Activity [2]	Activity [3]	Activity [4]	Activity [5]
Cc1cc(/C=C/c2ccc(C(=O)Nc3ccc(-c4c5ccc(=O)cc-5oc5cc(O)ccc45)c(C(=O)O)c3)cc2)cc(C)c1[N+](=O)[O-]	Not Active	–	–	–	–
Cc1cc(/C=C/c2ccc(/C=C/c3ccc(-c4c5ccc(=O)cc-5oc5cc(O)ccc45)c(C(=O)O)c3)cc2)cc(C)c1[N+](=O)[O-]	–	Active	inactive	Active	Active
